Results on 5 compounds are retold here after patent US20110275576A1, “Carbohydrate-Cyclopamine Conjugates as Anticancer Agents” (Utah State University, priority 2009, published 2011).

Each structure is given as a SMILES string. pIC50: −log10 of the molar value. Where two headings read alike, the source gives them in different places.

The test system of this assay is A549 cells. The experiment in a line: MTS assay, proliferation of A549 cells. The format is cell-based, human. The conditions noted are these: for proliferation of A549 cells: statement on Table 1; for pIC50: read-out: IC50, anticancer activity against lung cancer. Here is the method: Experimental procedure for MTS assay. To determine the efficacy of the compounds to cancer cells, a 3-(4,5-dimethylthiazol-2-yl)-5-(3-carboxymethoxyphenyl)-2-(4- sulfophenyl)-2H-tetrazolium inner salt (MTS) assay was used. A549 cells (ATCC, Manassas, Va.), representing a human lung carcinoma cell line, were plated on flat-bottomed 96-well plates in the presence of various concentrations of each compound. After incubation for up to 48 h at 37° C., the percentage of cell proliferation was determined with the MTS assay (Promega CellTiter 96 Aqueous Assay. Madison, Wis.), following the manufacturer's instruction.
(In general: Tetrazolium assays rely on reduction of a dye to a coloured formazan, in cell work by metabolically active cells.)

Where [1] appears, read: A549 human lung carcinoma cells, MTS assay, incubation up to 48 h at 37° C.

On to `CC1=C2C[C@H]3[C@@H](CC=C4C[C@@H](O)CC[C@@]43C)[C@@H]2CC[C@]12O[C@@H]1C[C@H](C)CN(Cc3cn([C@@H]4OC(CO)[C@@H](O)C(O)C4O)nn3)[C@H]1[C@H]2C` (stereo partly drawn) [Example 3a, N-(1-(β-D-Glucopyranosyl)-1H-1,2,3-triazol-4-yl)methylcyclopamine], for which, where the note is “A549 cells, MTS assay”, the “proliferation of A549 cells” value was “reduced the proliferation of A549 cells”. Moreover, the pIC50 under setting [1] was 3.84.
Turning to `CC1=C2C[C@H]3[C@@H](CC=C4C[C@@H](O)CC[C@@]43C)[C@@H]2CC[C@]12O[C@@H]1C[C@H](C)CN(Cc3cn([C@@H]4OC(CO)[C@@H](O[C@@H]5OC(CO)[C@H](O)C(O)C5O)C(O)C4O)nn3)[C@H]1[C@H]2C` (stereo partly drawn) [Example 3d, N-(1-(4-O-(β-D-Galactopyranosyl)-β-D-glucopyranosyl)-1H-1,2,3-triazol-4-yl)methylcyclopamine], the “proliferation of A549 cells” value (A549 cells, MTS assay) is on record as “reduced the proliferation of A549 cells”. Also, for the setting “Homo sapiens, A549, 48 h”, the pIC50 is 3.74.
For the compound `CC1=C2C[C@H]3[C@@H](CC=C4C[C@@H](O)CC[C@@]43C)[C@@H]2CC[C@]12O[C@@H]1C[C@H](C)CN(Cc3cn(C4OC(C)[C@H](O)C(O)[C@@H]4O)nn3)[C@H]1[C@H]2C` (stereo partly drawn) [Example 3f, N-(1-(α-L-Rhamnopyranosyl)-1H-1,2,3-triazol-4-yl)methylcyclopamine], the “proliferation of A549 cells compared with cyclopamine” value (A549 cells, MTS assay, comparison with cyclopamine) is recorded as “reduced the proliferation of A549 cells more than cyclopamine”. In addition, the “proliferation of A549 cells” value (A549 cells, MTS assay) was “reduced the proliferation of A549 cells”. Under setting [1], the negative logarithm of the IC50 (pIC50) is 4.48.
Regarding `CC1=C2C[C@H]3[C@@H](CC=C4C[C@@H](O)CC[C@@]43C)[C@@H]2CC[C@]12O[C@@H]1C[C@H](C)CN(Cc3cn([C@@H]4OC(CO)[C@@H](O[C@@H]5OC(CO)[C@@H](O[C@@H]6OC(CO)[C@@H](O)C(O)C6O)C(O)C5O)C(O)C4O)nn3)[C@H]1[C@H]2C` (stereo partly shown) [Example 3k], the “proliferation of A549 cells” value (A549 cells, MTS assay) is recorded as “reduced the proliferation of A549 cells”. Besides, the negative logarithm of the IC50 (pIC50) under setting [1] is 4.02.
Turning to `CC1=C2C[C@H]3[C@@H](CC=C4C[C@@H](O)CC[C@@]43C)[C@@H]2CC[C@]12O[C@@H]1C[C@H](C)CN[C@H]1[C@H]2C` [cyclopamine], the pIC50 (Homo sapiens, A549, 48 h) was 4.31.

In general, pIC50 refers to the negative decadic logarithm of the IC50, by convention in mol/L.
